Experimental data: ChEMBL document CHEMBL5465560, “Selectivity Literature for EUbOPEN Chemogenomic Library” (2024)
Numbering of substitutions follows the chain as printed.

Legend:
Settings in all cases: at 100 nM
[1] = system: T1, Receptor-type tyrosine-protein kinase FLT3 (Homo sapiens), P36888 [D835V]; assay: (§1) Selectivity interaction (KinomeScan (DiscoverX)) EUB0000695a FLT3
T1 sequence (whole entry): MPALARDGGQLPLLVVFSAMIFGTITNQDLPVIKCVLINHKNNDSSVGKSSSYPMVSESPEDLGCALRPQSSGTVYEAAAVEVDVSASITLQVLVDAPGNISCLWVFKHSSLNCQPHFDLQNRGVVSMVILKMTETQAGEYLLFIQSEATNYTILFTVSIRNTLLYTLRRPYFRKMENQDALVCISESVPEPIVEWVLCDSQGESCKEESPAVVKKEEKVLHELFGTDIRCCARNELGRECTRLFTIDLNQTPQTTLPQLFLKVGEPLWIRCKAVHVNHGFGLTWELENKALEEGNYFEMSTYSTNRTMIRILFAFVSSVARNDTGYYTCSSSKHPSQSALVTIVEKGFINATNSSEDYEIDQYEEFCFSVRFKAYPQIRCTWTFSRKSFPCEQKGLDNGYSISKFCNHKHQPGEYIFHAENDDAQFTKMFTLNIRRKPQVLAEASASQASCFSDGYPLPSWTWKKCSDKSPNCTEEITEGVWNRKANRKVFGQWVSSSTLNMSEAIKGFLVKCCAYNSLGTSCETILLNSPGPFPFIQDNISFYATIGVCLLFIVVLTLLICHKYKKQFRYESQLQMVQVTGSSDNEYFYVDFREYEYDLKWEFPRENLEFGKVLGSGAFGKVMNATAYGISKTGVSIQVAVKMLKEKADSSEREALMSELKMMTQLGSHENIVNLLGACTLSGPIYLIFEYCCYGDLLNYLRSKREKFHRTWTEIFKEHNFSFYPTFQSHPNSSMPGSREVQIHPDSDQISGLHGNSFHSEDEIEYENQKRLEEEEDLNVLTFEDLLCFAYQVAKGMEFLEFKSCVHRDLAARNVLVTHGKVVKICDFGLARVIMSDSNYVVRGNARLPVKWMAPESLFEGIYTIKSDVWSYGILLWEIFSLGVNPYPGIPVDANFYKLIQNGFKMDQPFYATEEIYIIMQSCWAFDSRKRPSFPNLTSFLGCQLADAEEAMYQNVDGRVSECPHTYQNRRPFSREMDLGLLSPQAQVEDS

[2] = system: T2, Receptor-type tyrosine-protein kinase FLT3 (Homo sapiens), P36888 [D835H]; assay: as §1
T2 sequence (whole entry): T1 sequence (whole entry) with V835H

[3] = system: T3, Receptor-type tyrosine-protein kinase FLT3 (Homo sapiens), P36888 [K663Q]; assay: as §1
T3 sequence (whole entry): T1 sequence (whole entry) with K663Q, V835D

[4] = system: Receptor-type tyrosine-protein kinase FLT3 (Homo sapiens), P36888 [UNDEFINED MUTATION]; assay: as §1

Cc1cc(F)c(C(=O)Nc2cccc(-c3nncn3C(C)C)n2)cc1-n1cnc(C2CC2)c1
% of control [1]: 100% | % of control [2]: 100% | % of control [3]: 97% | % of control [4]: 100%
